# Experimental data from ChEMBL document CHEMBL1140879, “Synthesis of isothiazol-3-one derivatives as inhibitors of histone acetyltransferases (HATs)” (Bioorg Med Chem, 2009).
# Key:
# [1] = target: Histone acetyltransferase KAT2B (Homo sapiens, UniProt Q92831); assay: Inhibition of GST-fused recombinant HAT PCAF expressed in Escherichia coli by filter assay
# [2] = target: T1, Histone acetyltransferase p300 (Homo sapiens, UniProt Q09472); assay: Inhibition of GST-fused recombinant HAT p300 expressed in Escherichia coli by filter assay
# [3] = target: T1, Histone acetyltransferase p300; assay: Inhibition of recombinant His-tagged HAT p300 expressed in Sf21-Baculovirus system
# [4] = target: T1, Histone acetyltransferase p300; assay: Inhibition of HAT p300
# Histone acetyltransferase KAT2B, sequence (Q92831 whole entry, the tested form may be a part): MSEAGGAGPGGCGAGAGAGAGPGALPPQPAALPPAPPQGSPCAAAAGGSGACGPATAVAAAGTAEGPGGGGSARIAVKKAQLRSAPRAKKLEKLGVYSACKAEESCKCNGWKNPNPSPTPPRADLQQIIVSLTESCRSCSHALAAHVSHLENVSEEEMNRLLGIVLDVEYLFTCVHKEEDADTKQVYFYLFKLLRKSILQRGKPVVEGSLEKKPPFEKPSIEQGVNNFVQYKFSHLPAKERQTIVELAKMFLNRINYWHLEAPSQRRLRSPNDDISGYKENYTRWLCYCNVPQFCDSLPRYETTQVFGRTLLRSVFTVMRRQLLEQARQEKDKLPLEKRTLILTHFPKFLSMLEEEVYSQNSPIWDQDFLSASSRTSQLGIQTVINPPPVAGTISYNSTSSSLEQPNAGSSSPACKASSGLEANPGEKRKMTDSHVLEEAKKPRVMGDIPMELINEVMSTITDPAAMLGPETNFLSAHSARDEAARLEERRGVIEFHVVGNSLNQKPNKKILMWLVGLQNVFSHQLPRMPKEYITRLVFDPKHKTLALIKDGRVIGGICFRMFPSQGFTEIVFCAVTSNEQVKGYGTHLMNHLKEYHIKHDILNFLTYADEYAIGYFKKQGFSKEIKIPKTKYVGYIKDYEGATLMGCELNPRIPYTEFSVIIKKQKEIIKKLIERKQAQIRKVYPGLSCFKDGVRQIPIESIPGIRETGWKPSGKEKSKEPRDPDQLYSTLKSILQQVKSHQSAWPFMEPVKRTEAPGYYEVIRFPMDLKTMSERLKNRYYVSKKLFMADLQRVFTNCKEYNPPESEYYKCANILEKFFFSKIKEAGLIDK
# T1 sequence (Q09472 whole entry, the tested form may be a part): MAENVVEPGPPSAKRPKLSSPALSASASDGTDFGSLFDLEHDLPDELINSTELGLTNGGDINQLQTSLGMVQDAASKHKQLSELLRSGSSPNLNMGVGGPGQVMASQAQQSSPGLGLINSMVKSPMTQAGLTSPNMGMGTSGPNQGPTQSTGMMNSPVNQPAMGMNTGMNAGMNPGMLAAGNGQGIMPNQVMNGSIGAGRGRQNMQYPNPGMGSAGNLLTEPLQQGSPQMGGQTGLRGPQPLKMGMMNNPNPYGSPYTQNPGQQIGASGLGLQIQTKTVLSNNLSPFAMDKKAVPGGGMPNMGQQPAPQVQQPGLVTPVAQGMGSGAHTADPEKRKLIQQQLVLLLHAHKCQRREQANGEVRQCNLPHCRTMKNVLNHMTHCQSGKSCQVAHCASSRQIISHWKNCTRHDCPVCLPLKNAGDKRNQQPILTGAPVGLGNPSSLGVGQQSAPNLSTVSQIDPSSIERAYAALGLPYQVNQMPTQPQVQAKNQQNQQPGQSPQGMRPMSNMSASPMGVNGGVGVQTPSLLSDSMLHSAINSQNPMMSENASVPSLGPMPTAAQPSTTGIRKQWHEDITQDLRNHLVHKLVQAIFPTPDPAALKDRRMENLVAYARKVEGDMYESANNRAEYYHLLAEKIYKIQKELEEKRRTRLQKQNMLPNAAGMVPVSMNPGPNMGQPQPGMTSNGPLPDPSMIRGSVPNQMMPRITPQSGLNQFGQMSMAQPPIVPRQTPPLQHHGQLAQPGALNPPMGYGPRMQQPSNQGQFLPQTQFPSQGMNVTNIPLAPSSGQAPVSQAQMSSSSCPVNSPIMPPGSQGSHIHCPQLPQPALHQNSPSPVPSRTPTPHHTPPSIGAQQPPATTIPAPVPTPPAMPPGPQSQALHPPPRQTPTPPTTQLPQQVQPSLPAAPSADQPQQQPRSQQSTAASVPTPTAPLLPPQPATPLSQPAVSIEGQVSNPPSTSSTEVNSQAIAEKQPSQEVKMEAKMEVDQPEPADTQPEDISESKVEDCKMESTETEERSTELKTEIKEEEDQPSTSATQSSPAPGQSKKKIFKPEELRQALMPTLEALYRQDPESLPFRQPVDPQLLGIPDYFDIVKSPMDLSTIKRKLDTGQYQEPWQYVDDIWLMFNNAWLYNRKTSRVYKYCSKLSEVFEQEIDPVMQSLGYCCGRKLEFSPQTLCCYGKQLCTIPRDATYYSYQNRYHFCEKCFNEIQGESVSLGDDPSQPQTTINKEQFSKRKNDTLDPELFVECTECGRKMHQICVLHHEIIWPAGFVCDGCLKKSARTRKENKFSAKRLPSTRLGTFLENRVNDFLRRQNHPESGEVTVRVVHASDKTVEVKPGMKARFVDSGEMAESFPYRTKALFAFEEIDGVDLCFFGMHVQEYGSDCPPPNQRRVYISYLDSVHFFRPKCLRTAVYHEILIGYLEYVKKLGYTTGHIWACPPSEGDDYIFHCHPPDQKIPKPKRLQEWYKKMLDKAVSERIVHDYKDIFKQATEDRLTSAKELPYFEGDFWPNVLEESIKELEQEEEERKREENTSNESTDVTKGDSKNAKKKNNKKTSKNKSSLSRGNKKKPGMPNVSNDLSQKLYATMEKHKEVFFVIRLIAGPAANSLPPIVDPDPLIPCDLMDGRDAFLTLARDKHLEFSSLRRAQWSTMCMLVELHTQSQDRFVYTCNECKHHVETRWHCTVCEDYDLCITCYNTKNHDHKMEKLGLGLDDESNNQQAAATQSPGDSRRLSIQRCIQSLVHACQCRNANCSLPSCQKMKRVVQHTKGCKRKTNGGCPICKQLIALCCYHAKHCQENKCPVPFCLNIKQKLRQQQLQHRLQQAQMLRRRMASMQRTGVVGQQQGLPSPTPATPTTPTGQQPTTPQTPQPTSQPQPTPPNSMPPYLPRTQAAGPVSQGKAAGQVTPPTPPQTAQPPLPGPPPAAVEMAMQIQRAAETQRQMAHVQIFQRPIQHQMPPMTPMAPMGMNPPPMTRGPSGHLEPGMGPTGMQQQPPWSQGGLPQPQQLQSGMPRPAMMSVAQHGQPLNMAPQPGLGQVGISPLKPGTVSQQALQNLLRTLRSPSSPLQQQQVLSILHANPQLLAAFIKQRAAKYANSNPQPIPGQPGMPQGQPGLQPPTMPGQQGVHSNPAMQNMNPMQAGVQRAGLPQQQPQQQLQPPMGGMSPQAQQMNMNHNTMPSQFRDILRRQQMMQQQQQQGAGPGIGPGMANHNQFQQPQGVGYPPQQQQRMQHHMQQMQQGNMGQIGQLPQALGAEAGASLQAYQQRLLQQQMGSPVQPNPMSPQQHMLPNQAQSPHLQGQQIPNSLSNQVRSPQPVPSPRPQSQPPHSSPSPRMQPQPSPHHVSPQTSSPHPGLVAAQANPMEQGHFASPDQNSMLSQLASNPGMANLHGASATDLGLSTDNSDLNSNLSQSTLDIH
Compound,IC50 [1] [µM],also measured
O=c1c2cccnc2sn1-c1ccccc1,6.1,–
CN(C)c1ccc(-n2sccc2=O)cc1,5.4,–
O=c1cc(CO)sn1-c1ccccc1,109,–
Cc1csn(-c2ccccc2)c1=O,32,–
[N-]=[N+]=NCc1csn(-c2ccccc2)c1=O,42.7,–
O=c1ccsn1-c1cccnc1,6.5,IC50 [2]: 14.4 µM
O=c1ccsn1-c1cc(F)c(F)c(F)c1,3.1,–
O=c1ccsn1-c1cccc(Cl)c1F,5.4,–
O=c1ccsn1-c1ccccn1,19,IC50 [2]: 28 µM
[N-]=[N+]=NCc1cc(=O)n(-c2ccccc2)s1,58,–
Cc1cc(=O)n(-c2ccccc2)s1,> 200,–
COCc1csn(-c2ccccc2)c1=O,102,–
COc1sn(-c2ccccc2)c(=O)c1C,> 200,–
O=c1ccsn1-c1ccc(N2CCOCC2)cc1,7.5,IC50 [2]: 9.9 µM
CC(=O)OCc1cc(=O)n(-c2ccccc2)s1,162,–
O=c1ccsn1-c1ccncc1,1.5,IC50 [2]: 3 µM
O=c1cc(-c2ccccc2)sn1-c1ccccc1,> 200,–
Cc1c(Cl)sn(-c2ccccc2)c1=O,19.8,–
O=C(Nc1ccccc1)OCc1cc(=O)n(-c2ccccc2)s1,> 200,–
O=c1ccsn1-c1ccccc1,28,IC50 [2]: 23 µM
C=CC/C=C\C/C=C\CCCCCCCc1cccc(O)c1C(=O)O [ANACARDIC ACID],–,IC50 [3]: 5 µM
C=C(C)[C@@H](CC=C(C)C)C[C@@]12C[C@@H](CC=C(C)C)C(C)(C)[C@@](CC=C(C)C)(C(=O)C(C(=O)c3ccc(O)c(O)c3)=C1O)C2=O [GARCINOL],–,IC50 [4]: 6 µM
